Experimental data as given in patent US12653187B2, “Sulfur based pesticides” (AGRONATURALIS LTD, priority 2019, dated 2026).

Experiment: Surface tension and equilibrium contact angle by drop shape analyser (Example 7)
Assay type: physicochemical
Procedure: The wetting properties of the individual surfactants and in combination were evaluated by dissolving the surfactants at various concentrations in deionised water. Surface tension and equilibrium contact angle were measured in triplicate using a drop shape analyser with results given in Table 9 below.

Row | Structure (SMILES) | contact angle (°) (0.005 % w/w in deionised water) | surface tension (mN/m) (0.005 % w/w in deionised water) | contact angle (°) (0.010 % w/w in deionised water) | surface tension (mN/m) (0.010 % w/w in deionised water) | contact angle (°) (0.025 % w/w in deionised water) | surface tension (mN/m) (0.025 % w/w in deionised water) | contact angle (°) (0.050 % w/w in deionised water) | surface tension (mN/m) (0.050 % w/w in deionised water) | contact angle (°) (0.100 % w/w in deionised water) | surface tension (mN/m) (0.100 % w/w in deionised water) | contact angle (°) (0.200 % w/w in deionised water) | surface tension (mN/m) (0.200 % w/w in deionised water) | contact angle (°) (0.250 % w/w in deionised water) | surface tension (mN/m) (0.250 % w/w in deionised water) | contact angle (°) (0.500 % w/w in deionised water) | surface tension (mN/m) (0.500 % w/w in deionised water)
1 | CCCCC(CC)COC(=O)CC(C(=O)OCC(CC)CCCC)S(=O)(=O)[O-].[Na+] (stereo not shown) [sodium dioctylsulfosuccinate] | 54.1 ° | 44.3 mN/m | 38.2 ° | 43.6 mN/m | 35.4 ° | 34.7 mN/m | 31.5 ° | 32.2 mN/m | 28.7 ° | 28.3 mN/m | 24.4 ° | 26.8 mN/m | 22.8 ° | 26.1 mN/m | 21.4 ° | 25.3 mN/m
2 | CCCCCCCCCCCCOS(=O)(=O)[O-].[Na+] [sodium lauryl sulfate] | 107.1 ° | 70.6 mN/m | – | – | 72.8 ° | 56.8 mN/m | 63.9 ° | 46.1 mN/m | 55.3 ° | 37.2 mN/m | 51.5 ° | 34.2 mN/m | 50.6 ° | 33.4 mN/m | – | –
